Measurements: patent publication US20240417410A1, “TRICYCLIC COMPOUNDS FOR THE TREATMENT OF CANCER” (Hoffmann-La Roche Inc., priority 2023, published 2024)

What was measured:
AGS cells (KRAS G12D) = assay: Cell viability assay (Cell Counting Kit-8, 3-day); assay type: cell-based, human; conditions: Homo sapiens, 72 h, 72 hrs incubation
How it was run: (§1)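 Read-out is CCK-8 absorbance (OD450 minus OD650, 2 hrs after reagent), reflecting NADPH after 72 hrs of compound exposure in 0.5% DMSO. Seeding density was 5,000 cells/well for NCI-H358 and 2,000 for AGS and SW620. IC50 derived by 4-parameter sigmoidal fitting.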

[1] = tested on: NCI-H358 cells (KRAS G12C); assay: Cell viability assay (Cell Counting Kit-8, 3-day); assay type: cell-based, human; conditions: Homo sapiens, NCI-H358, 72 h, NCI-H358, 72 hrs incubation
How it was run: as §1

SW620 cells (KRAS G12V) = assay: Cell viability assay (Cell Counting Kit-8, 3-day); assay type: cell-based, human; conditions: Homo sapiens, SW-620; SW620, 72 hrs incubation
How it was run: as §1

KRAS G12C-BRAF complex = KRAS G12C-BRAF complex (Homo sapiens (Human), UniProt P01116+P62937, G12C); assay: KRAS-BRAF with CYPA (500 nM) interaction assay (TR-FRET, Example 136); assay type: biochemical; conditions: KRAS G12C-BRAF disruption
Chain of KRAS G12C-BRAF complex (P01116-2 other isoform, or with tags, fused parts or gaps G12C): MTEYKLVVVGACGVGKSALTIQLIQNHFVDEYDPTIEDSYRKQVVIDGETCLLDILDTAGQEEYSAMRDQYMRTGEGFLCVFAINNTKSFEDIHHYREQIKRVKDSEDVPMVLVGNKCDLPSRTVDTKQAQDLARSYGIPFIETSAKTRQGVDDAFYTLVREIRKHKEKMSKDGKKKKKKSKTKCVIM
Chain of KRAS G12C-BRAF complex (P62937 whole entry): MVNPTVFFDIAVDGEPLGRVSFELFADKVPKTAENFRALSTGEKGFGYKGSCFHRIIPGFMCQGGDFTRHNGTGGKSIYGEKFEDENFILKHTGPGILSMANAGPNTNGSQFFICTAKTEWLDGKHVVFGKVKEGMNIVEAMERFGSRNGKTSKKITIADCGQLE
Procedure: In this example, TR-FRET was also used to measure the compound or compound-CYPA dependent disruption of the KRAS G12C-BRAF complex. This protocol was also used to measure disruption of KRAS G12D or KRAS G12V binding to BRAF by a compound of the invention, respectively. In assay buffer containing 25 mM HEPES PH=7.4 (4-(2-hydroxyethyl)-1-piperazineethanesulfonic acid, Thermo, 15630080), 0.002% Tween20, 0.1% BSA, 100 mM NaCl, 5 mM MgCl2, 10 μM GMPPNP (Guanosine 5′-[β,γ-imido]triphosphate trisodium salt hydrate, Sigma, G0635), […] 384-well assay plate at final concentrations of 50 nM, 6.25 nM and 1 nM, respectively. Compound was present in plate wells as a 16-point 3-fold dilution series starting at a final concentration of 10 μM and incubated for 3 hours. A mixture of MAb Anti-6His-XL665 (Cisbio, 61HISXLB) and Mab anti-GST-TB cryptate (Cisbio, 61GSTTLB) was then added at a final concentration of 6.67 nM and 0.21 nM, respectively, and the plate was incubated for an additional 1.5 hours. TR-FRET signal was read on a PHERstar FSX microplate reader (Ex320 nm, Em 665/615 nm). Compounds that facilitate disruption of the KRAS-BRAF complex were identified as those eliciting a decrease in the TR-FRET ratio relative to DMSO control wells.

[2] = tested on: phosphorylation of ERK, KRAS G12C in NCI-H358 cells; assay: pERK inhibition assay; assay type: cell-based; conditions: Homo sapiens, NCI-H358, 4 h
How it was run: (§2)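 NCI-H358 (KRAS G12C), AGS (G12D) and SW620 (G12V) cells plated overnight, then treated with compound for 4 h in 0.5% DMSO. After fixing and methanol permeabilisation, phospho-ERK was detected by in-cell ELISA (HRP/TMB, OD450). IC50 from a 4-parameter sigmoidal fit.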

[3] = tested on: phosphorylation of ERK, KRAS G12V in SW620; assay: pERK inhibition assay; assay type: cell-based; conditions: Homo sapiens, SW-620, 4 h, SW620 cells
How it was run: as §2

[4] = tested on: phosphorylation of ERK, KRAS G12D in AGS cells; assay: pERK inhibition assay; assay type: cell-based; conditions: Homo sapiens, AGS, 4 h
How it was run: as §2

Row | Structure (SMILES) | IC50 (AGS cells (KRAS G12D)) [nM] | IC50 [1] [nM] | IC50 (SW620 cells (KRAS G12V)) [nM] | IC50 (KRAS G12C-BRAF complex) [nM] | IC50 [2] [nM] | IC50 [3] [nM] | IC50 [4] [nM]
1 | CO[C@@H](C)c1ncc(N2CCN(C)CC2)cc1-c1c2c3cc(cc4c3n1CC(F)(F)C4)-c1csc(n1)C[C@H](NC(=O)[C@H]1C[C@@H]1C)C(=O)N1CCC[C@H](N1)C(=O)OCC(C)(C)C2 (atropisomer, axis not shown; (M)) [Example 18, (1S,2S)-N-[(7S,13S)-23,23-difluoro-(20M)-20-[2-[(1S)-1-methoxyethyl]-5-(4-methylpiperazin-1-yl)-3-pyridyl]-17,17-dimethyl-8,14-dioxo-15-oxa-4-thia-9,21,30,31-tetrazahexacyclo[23.3.1.1^2,5.1^9,13.0^19,27.0^21,26]hentriaconta-1 (28),2,5 (31),19,25 (29),26-hexaen-7-yl]-2-methyl-cyclopropanecarboxamide] | 54.5 | 18 | 2.9 | 14.7 | 16.8 | 7.4 | 7.7
2 | CO[C@@H](C)c1ncc(N2CCN(C)CC2)cc1-c1c2c3cc(cc4c3n1CC(F)(F)C4)-c1csc(n1)C[C@H](NC(=O)[C@H]1[C@H](C)[C@@H]1C)C(=O)N1CCC[C@H](N1)C(=O)OCC(C)(C)C2 (atropisomer, axis not shown; (M)) [Example 83] | 9.2 | 3.1 | 0.5 | 10.3 | 0.9 | 0.5 | 6
3 | CO[C@@H](C)c1ncc(N2CCN(CC(F)(F)F)CC2)cc1-c1c2c3cc(cc4c3n1CCC4)-c1csc(n1)C[C@H](NC(=O)[C@H]1C[C@@H]1c1cccnc1)C(=O)N1CCC[C@H](N1)C(=O)OCC(C)(C)C2 (atropisomer, axis not shown; (M)) [Example 90, (1S,2S)-N-[(7S,13S)-(20M)-20-[2-[(1S)-1-methoxyethyl]-5-[4-(2,2,2-trifluoroethyl)piperazin-1-yl]-3-pyridyl]-17,17-dimethyl-8,14-dioxo-15-oxa-4-thia-9,21,30,31-tetrazahexacyclo[23.3.1.1^2,5.1^9,13.0^19,27.0^21,26]hentriaconta-1 (28),2,5 (31), 19,25 (29),26-hexaen-7-yl]-2-(3-pyridyl)cyclopropanecarboxamide] | 16.8 | 3.3 | 0.8 | 6.4 | 1.7 | 0.6 | 9.4
4 | CO[C@@H](C)c1ncc(N2CCN(CCN3CCCC3=O)CC2)cc1-c1c2c3cc(cc4c3n1CCC4)-c1csc(n1)C[C@H](NC(=O)[C@H]1[C@H](C)[C@@H]1C)C(=O)N1CCC[C@H](N1)C(=O)OCC(C)(C)C2 (atropisomer, axis not shown; (M)) [Example 121, (1r,2R,3S)-N-[(7S,13S)-(20M)-20-[2-[(1S)-1-methoxyethyl]-5-[4-[2-(2-oxopyrrolidin-1-yl)ethyl]piperazin-1-yl]-3-pyridyl]-17,17-dimethyl-8,14-dioxo-15-oxa-4-thia-9,21,30,31-tetrazahexacyclo[23.3.1.1^2,5.1^9,13.0^19,27.0^21,26]hentriaconta-1 (28),2,5 (31), 19,25 (29),26-hexaen-7-yl]-2,3-dimethyl-cyclopropanecarboxamide] | 2.4 | 1.6 | 0.3 | 13 | 0.9 | 0.3 | 3.4
5 | CO[C@@H](C)c1ncc(N2CCN(C)CC2)cc1-c1c2c3cc(cc4c3n1CCC4)-c1csc(n1)C[C@H](NC(=O)[C@@H]1C[C@H]1C1CC1)C(=O)N1CCC[C@H](N1)C(=O)OCC(C)(C)C2 (atropisomer, axis not shown; (M)) [Example 16, (1R,2S)-2-cyclopropyl-N-[(7S,13S)-(20M)-20-[2-[(1S)-1-methoxyethyl]-5-(4-methylpiperazin-1-yl)-3-pyridyl]-17,17-dimethyl-8,14-dioxo-15-oxa-4-thia-9,21,30,31-tetrazahexacyclo[23.3.1.1^2,5.1^9,13.0^19,27.0^21,26]hentriaconta-1 (28),2,5 (31),19,25 (29),26-hexaen-7-yl]cyclopropanecarboxamide] | 25.9 | 7.3 | 1.6 | 10.2 | 4.6 | 2.8 | 2.6
6 | CO[C@@H](C)c1ncc(N2CCN(CCF)CC2)cc1-c1c2c3cc(cc4c3n1CCC4)-c1csc(n1)C[C@H](NC(=O)[C@H]1[C@H](C)[C@@H]1C)C(=O)N1CCC[C@H](N1)C(=O)OCC(C)(C)C2 (atropisomer, axis not shown; (M)) [Example 110, (1r,2R,3S)-N-[(7S,13S)-(20M)-20-[5-[4-(2-fluoroethyl)piperazin-1-yl]-2-[(1S)-1-methoxyethyl]-3-pyridyl]-17,17-dimethyl-8,14-dioxo-15-oxa-4-thia-9,21,30,31-tetrazahexacyclo[23.3.1.1^2,5.1^9,13.0^19,27.0^21,26]hentriaconta-1 (28),2,5 (31), 19,25 (29),26-hexaen-7-yl]-2,3-dimethyl-cyclopropanecarboxamide] | 2.6 | 1.8 | 0.4 | 4.9 | 0.7 | 0.3 | 2.6
7 | CO[C@@H](C)c1ncc(N2CCOCC2)cc1-c1c2c3cc(cc4c3n1CC(F)(F)C4)-c1csc(n1)C[C@H](NC(=O)[C@H]1C[C@@H]1C)C(=O)N1CCC[C@H](N1)C(=O)OCC(C)(C)C2 (atropisomer, axis not shown; (M)) [Example 75, (1S,2S)-N-[(7S,13S)-23,23-difluoro-(20M)-20-[2-[(1S)-1-methoxyethyl]-5-morpholino-3-pyridyl]-17,17-dimethyl-8,14-dioxo-15-oxa-4-thia-9,21,30,31-tetrazahexacyclo[23.3.1.1^2,5.1^9,13.0^19,27.0^21,26]hentriaconta-1 (28),2,5 (31),19,25 (29),26-hexaen-7-yl]-2-methyl-cyclopropanecarboxamide] | 58.7 | 20.2 | 3.6 | 29.7 | 4.9 | 2.6 | 23.6
8 | CO[C@@H](C)c1ncc(N2CCN(C)CC2)cc1-c1c2c3cc(cc4c3n1CC(C)(C)C4)-c1csc(n1)C[C@H](NC(=O)[C@H]1[C@H](C)[C@@H]1C)C(=O)N1CCC[C@H](N1)C(=O)OCC(C)(C)C2 (atropisomer, axis not shown; (M)) [Example 69, (1r,2S,3R)-N-[(7S,13S)-(20M)-20-[2-[(1S)-1-methoxyethyl]-5-(4-methylpiperazin-1-yl)-3-pyridyl]-17,17,23,23-tetramethyl-8,14-dioxo-15-oxa-4-thia-9,21,30,31-tetrazahexacyclo[23.3.1.1^2,5.1^9,13.0^19,27.0^21,26]hentriaconta-1 (28),2,5 (31), 19,25 (29),26-hexaen-7-yl]-2,3-dimethyl-cyclopropanecarboxamide] | 75.4 | 19.2 | 4.4 | 35.7 | 1.5 | 1.5 | 11.3
9 | CO[C@@H](C)c1ncc(N2CCN(CCC(C)(C)OC)CC2)cc1-c1c2c3cc(cc4c3n1CCC4)-c1csc(n1)C[C@H](NC(=O)[C@H]1[C@H](C)[C@@H]1C)C(=O)N1CCC[C@H](N1)C(=O)OCC(C)(C)C2 (atropisomer, axis not shown; (M)) [Example 123, (1r,2R,3S)-N-[(7S,13S)-(20M)-20-[2-[(1S)-1-methoxyethyl]-5-[4-(3-methoxy-3-methyl-butyl)piperazin-1-yl]-3-pyridyl]-17,17-dimethyl-8,14-dioxo-15-oxa-4-thia-9,21,30,31-tetrazahexacyclo[23.3.1.1^2,5.1^9,13.0^19,27.0^21,26]hentriaconta-1 (28),2,5 (31), 19,25 (29),26-hexaen-7-yl]-2,3-dimethyl-cyclopropanecarboxamide] | 5.1 | 3 | 0.6 | 13.7 | 0.8 | 0.6 | 7.1
